Experimental data taken from patent US20260315464A1, “COMPOSITIONS, METHODS, AND SYSTEMS FOR MODULATING SPLICING OF MSH3” (REVIR THERAPEUTICS, INC., priority 2023, published 2026).

Tested on: MSH3
Assay: QPCR assay for levels of MSH3 upon compound treatment in HEK293T or AD293 cells (fold-change of MSH3 transcript, EC50 of MSH3 downregulation; total MSH3 exons 13/14, exons 20/21; Table 8)
Assay type: cell-based
Details: for mrna remaining at 1 µM / mrna remaining at 10 µM: Homo sapiens, fold-change of the MSH3 transcript, normalized to GAPDH; for mrna remaining at 1 µM: 1 μM compound; for mrna remaining at 10 µM: 10 μM compound; for EC50: EC50 of MSH3 downregulation, XtalPi
Protocol: HEK293T or AD293 cells were treated with Compound 274 at 1 μM and […]. RNA, cDNA and qPCR was prepared using TaqMan Cells-to-CT Express kit (ThermoFisher Scientific). Taqman assays (ThermoFisher Scientific) were used for quantification of total MSH3 exons 13/14 (cat #4351372, ID #: Hs00988993_ml), total MSH3 exons 20/21 (cat #4351372, ID #: Hs00989000_ml), exon 13/PE14A (Fwd: 5′-[…]; Rev: 5′-[…]; Probe: 5′-[…]) and exon 20/PE21A (Fwd: 5′-[…]; Rev: 5′-[…]; Probe: 5′-[…]) mRNA expression. Taqman GAPDH (cat #4448489, ID #: Hs02758991_g1) was used as a reference for data normalization.

EC50 [nM]	Compound	mrna remaining at 1 µM [%]	mrna remaining at 10 µM [%]
	Cn1cc(-c2cc3c(cn2)CN(c2ccc(O[C@H]4C[C@]5(C)CC[C@](C)(C4)N5)nn2)C3=O)c(F)n1 [Compound 107, 2-(6-(((1R,3s,5S)-1,5-dimethyl-8-azabicyclo[3.2.1]octan-3-yl)oxy)pyridazin-3-yl)-6-(3-fluoro-1-methyl-1H-pyrazol-4-yl)-2,3-dihydro-1H-pyrrolo[3,4-c]pyridin-1-one]	97	75
	Cc1nn(C)cc1-c1cnc2c(c1)C(=O)N(c1ccc(OC3CC(C)(C)NC(C)(C)C3)nn1)C2 [Compound 141, 3-(1,3-dimethyl-1H-pyrazol-4-yl)-6-(6-((2,2,6,6-tetramethylpiperidin-4-yl)oxy)pyridazin-3-yl)-6,7-dihydro-5H-pyrrolo[3,4-b]pyridin-5-one]	67	6
	CN(c1ccc(N2Cc3ncc(-c4cnn(C)c4)cc3C2=O)nn1)C1CC(C)(C)NC(C)(C)C1 [Compound 148, 6-(6-(methyl(2,2,6,6-tetramethylpiperidin-4-yl)amino)pyridazin-3-yl)-3-(1-methyl-1H-pyrazol-4-yl)-6,7-dihydro-5H-pyrrolo[3,4-b]pyridin-5-one]	103	40
	Cc1nc(C)c(-c2cnc3c(c2)C(=O)N(c2ccc(OC4CC(C)(C)NC(C)(C)C4)nn2)C3)s1 [Compound 150, 3-(2,4-dimethylthiazol-5-yl)-6-(6-((2,2,6,6-tetramethylpiperidin-4-yl)oxy)pyridazin-3-yl)-6,7-dihydro-5H-pyrrolo[3,4-b]pyridin-5-one]	116	77
	Cc1nn(C)cc1-c1cnc2c(c1)C(=O)N(c1ccc(N(C)C3CC(C)(C)NC(C)(C)C3)nn1)C2 [Compound 156, 3-(1,3-dimethyl-1H-pyrazol-4-yl)-6-(6-(methyl(2,2,6,6-tetramethylpiperidin-4-yl)amino)pyridazin-3-yl)-6,7-dihydro-5H-pyrrolo[3,4-b]pyridin-5-one]	81	19
	[2H]C([2H])([2H])n1cc(-c2cnc3c(c2)C(=O)N(c2ccc(N(C)C4CC(C)(C)NC(C)(C)C4)nn2)C3)cn1 [Compound 161, 6-(6-(methyl(2,2,6,6-tetramethylpiperidin-4-yl)amino)pyridazin-3-yl)-3-(1-(methyl-d3)-1H-pyrazol-4-yl)-6,7-dihydro-5H-pyrrolo[3,4-b]pyridin-5-one]	96	70
	Cc1nc(C)c(-c2cnc3c(c2)C(=O)N(c2ccc(N(C)C4CC(C)(C)NC(C)(C)C4)nn2)C3)s1 [Compound 167, 3-(2,4-dimethylthiazol-5-yl)-6-(6-(methyl(2,2,6,6-tetramethylpiperidin-4-yl)amino)pyridazin-3-yl)-6,7-dihydro-5H-pyrrolo[3,4-b]pyridin-5-one]	47	11
	Cc1nc(C)c(-c2cnc3c(c2)C(=O)N(c2ccc(O[C@H]4C[C@]5(C)CC[C@](C)(C4)N5)nn2)C3)s1 [Compound 174, 6-(6-(((1R,3s,5S)-1,5-dimethyl-8-azabicyclo[3.2.1]octan-3-yl)oxy)pyridazin-3-yl)-3-(2,4-dimethylthiazol-5-yl)-6,7-dihydro-5H-pyrrolo[3,4-b]pyridin-5-one]	103	62
	Cc1nn(C)cc1-c1cnc2c(c1)C(=O)N(c1cnc(N(C)[C@H]3C[C@]4(C)CC[C@](C)(C3)N4)nn1)C2 [Compound 175, 3-(1,3-dimethyl-1H-pyrazol-4-yl)-6-(3-(((1R,3s,5S)-1,5-dimethyl-8-azabicyclo[3.2.1]octan-3-yl)(methyl)amino)-1,2,4-triazin-6-yl)-6,7-dihydro-5H-pyrrolo[3,4-b]pyridin-5-one]	93	70
	Cn1cc(-c2cnc3c(c2)C(=O)N(c2ccc(OC4CC(C)(C)NC(C)(C)C4)nn2)C3)c(C(F)(F)F)n1 [Compound 176, 3-(1-methyl-3-(trifluoromethyl)-1H-pyrazol-4-yl)-6-(6-((2,2,6,6-tetramethylpiperidin-4-yl)oxy)pyridazin-3-yl)-6,7-dihydro-5H-pyrrolo[3,4-b]pyridin-5-one]	94	110
425	Cc1nn(C)nc1-c1cnc2c(c1)C(=O)N(c1ccc(N(C)[C@H]3C[C@]4(C)CC[C@](C)(C3)N4)nn1)C2 [Compound 178, 3-(2,5-dimethyl-2H-1,2,3-triazol-4-yl)-6-(6-(((1R,3s,5S)-1,5-dimethyl-8-azabicyclo[3.2.1]octan-3-yl)(methyl)amino)pyridazin-3-yl)-6,7-dihydro-5H-pyrrolo[3,4-b]pyridin-5-one]	10	5
	Cc1nn(C)nc1-c1cnc2c(c1)C(=O)N(c1ccc(OC3CC(C)(C)NC(C)(C)C3)nn1)C2 [Compound 179, 3-(2,5-dimethyl-2H-1,2,3-triazol-4-yl)-6-(6-((2,2,6,6-tetramethylpiperidin-4-yl)oxy)pyridazin-3-yl)-6,7-dihydro-5H-pyrrolo[3,4-b]pyridin-5-one]	93	8
1120	Cc1nn(C)nc1-c1cnc2c(c1)C(=O)N(c1ccc(N(C)C3CC(C)(C)NC(C)(C)C3)nn1)C2 [Compound 180, 3-(2,5-dimethyl-2H-1,2,3-triazol-4-yl)-6-(6-(methyl(2,2,6,6-tetramethylpiperidin-4-yl)amino)pyridazin-3-yl)-6,7-dihydro-5H-pyrrolo[3,4-b]pyridin-5-one]	50	8
	Cc1nn(C)cc1-c1cnc2c(c1)C(=O)N(c1ccc(O[C@H]3C[C@@]4(C)CC[C@](C)(N4)[C@H]3F)nn1)C2 [Compound 181, 3-(1,3-dimethyl-1H-pyrazol-4-yl)-6-(6-(((1S,2R,3S,5R)-2-fluoro-1,5-dimethyl-8-azabicyclo[3.2.1]octan-3-yl)oxy)pyridazin-3-yl)-6,7-dihydro-5H-pyrrolo[3,4-b]pyridin-5-one]	92	103
	CN(c1ccc(N2Cc3ncc(-c4cn(C)nc4C(F)(F)F)cc3C2=O)nn1)[C@H]1C[C@]2(C)CC[C@](C)(C1)N2 [Compound 183, 6-(6-(((1R,3s,5S)-1,5-dimethyl-8-azabicyclo[3.2.1]octan-3-yl)(methyl)amino)pyridazin-3-yl)-3-(1-methyl-3-(trifluoromethyl)-1H-pyrazol-4-yl)-6,7-dihydro-5H-pyrrolo[3,4-b]pyridin-5-one]	99	28
	CN(c1ccc(N2Cc3ncc(-c4cn(C)nc4F)cc3C2=O)nn1)C1CC(C)(C)NC(C)(C)C1 [Compound 187, 3-(3-fluoro-1-methyl-1H-pyrazol-4-yl)-6-(6-(methyl(2,2,6,6-tetramethylpiperidin-4-yl)amino)pyridazin-3-yl)-6,7-dihydro-5H-pyrrolo[3,4-b]pyridin-5-one]	92	25
960	CN(c1ccc(N2Cc3ncc(-c4cnn(C)n4)cc3C2=O)nn1)[C@H]1C[C@]2(C)CC[C@](C)(C1)N2 [Compound 188, 6-(6-(((1R,3s,5S)-1,5-dimethyl-8-azabicyclo[3.2.1]octan-3-yl)(methyl)amino)pyridazin-3-yl)-3-(2-methyl-2H-1,2,3-triazol-4-yl)-6,7-dihydro-5H-pyrrolo[3,4-b]pyridin-5-one]	18	5
	CN(c1ccc(N2Cc3ncc(-c4cnn(C)n4)cc3C2=O)nn1)C1CC(C)(C)NC(C)(C)C1 [Compound 189, 6-(6-(methyl(2,2,6,6-tetramethylpiperidin-4-yl)amino)pyridazin-3-yl)-3-(2-methyl-2H-1,2,3-triazol-4-yl)-6,7-dihydro-5H-pyrrolo[3,4-b]pyridin-5-one]	73	23
	Cn1cc(-c2cnc3c(c2)C(=O)N(c2ccc(OC4CC(C)(C)NC(C)(C)C4)nn2)C3)c(F)n1 [Compound 190, 3-(3-fluoro-1-methyl-1H-pyrazol-4-yl)-6-(6-((2,2,6,6-tetramethylpiperidin-4-yl)oxy)pyridazin-3-yl)-6,7-dihydro-5H-pyrrolo[3,4-b]pyridin-5-one]	106	45
	Cn1ncc(-c2cnc3c(c2)C(=O)N(c2ccc(OC4CC(C)(C)NC(C)(C)C4)nn2)C3)n1 [Compound 191, 3-(2-methyl-2H-1,2,3-triazol-4-yl)-6-(6-((2,2,6,6-tetramethylpiperidin-4-yl)oxy)pyridazin-3-yl)-6,7-dihydro-5H-pyrrolo[3,4-b]pyridin-5-one]	45	17
	Cc1nc(C)c(-c2cnc3c(c2)C(=O)N(c2ccc(O[C@@H]4C[C@]5(C)CC[C@](C)(C4)N5)nn2)C3)s1 [Compound 194, 6-(6-(((1R,3r,5S)-1,5-dimethyl-8-azabicyclo[3.2.1]octan-3-yl)oxy)pyridazin-3-yl)-3-(2,4-dimethylthiazol-5-yl)-6,7-dihydro-5H-pyrrolo[3,4-b]pyridin-5-one]	224	92
	Cc1nc(C)c(-c2cnc3c(c2)C(=O)N(c2cnc(N(C)C4CC(C)(C)NC(C)(C)C4)nn2)C3)s1 [Compound 195, 3-(2,4-dimethylthiazol-5-yl)-6-(3-(methyl(2,2,6,6-tetramethylpiperidin-4-yl)amino)-1,2,4-triazin-6-yl)-6,7-dihydro-5H-pyrrolo[3,4-b]pyridin-5-one]	59	42
